Results taken from patent publication US10695321B2, “Use of glycopyrrolate for treating tachycardia” (Heptares Therapeutics Limited, priority 2011, dated 2020).

Experiment: Sealed storage of micronised glycopyrrolate batches, physical changes and repeated particle sizing
Assay type: physicochemical
Details: sealed storage for several weeks
Description: Batches of micronised glycopyrrolate were obtained and, following sealed storage for several weeks, the physical changes of the material from fine cohesive powders to solid agglomerates were observed.
The following section summarises the tests conducted on reported batches of glycopyrrolate received following micronisation: […]

d50 on repeated particle sizing on storage (micronised powder) [μm]	SMILES	Physical state of powder on storage
	C[N+]1(C)CCC(OC(=O)C(O)(c2ccccc2)C2CCCC2)C1 (centres unmarked) [Batch A, glycopyrrolate]	soft lumps of material were found in bulk powder
	C[N+]1(C)CCC(OC(=O)C(O)(c2ccccc2)C2CCCC2)C1 (centres unmarked) [Batch B, glycopyrrolate]	large hard lumps of material were found
51	C[N+]1(C)CCC(OC(=O)C(O)(c2ccccc2)C2CCCC2)C1 (centres unmarked) [Batch C, glycopyrrolate]	large hard lumps of material were found in bulk powder
	C[N+]1(C)CCC(OC(=O)C(O)(c2ccccc2)C2CCCC2)C1 (centres unmarked) [Remicronised Batch C, glycopyrrolate]	only soft lumps of material were found in bulk powder
